# Laboratory results reported in patent publication US9645128B2, “Substituted imidazo[1,2-A]pyrazines for measuring a transcription activity” (JNC CORPORATION, priority 2009, dated 2017).
# Experiments:
# [1] = target: T1, recombinant apoaequorin (Aequorea victoria, UniProt P07164); assay: Emission spectra of semi-synthetic aequorins by addition of calcium ions; details: for Emission spectra of semi-synthetic aequorins compared with known analogs (FIG. 3): compared to h-CTZ and i-CTZ; for Maximum emission wavelength λmax (nm): semi-synthetic aequorin, 22 to 25° C.
# T1 sequence (P07164 other isoform, or with tags, fused parts or gaps with the stated changes): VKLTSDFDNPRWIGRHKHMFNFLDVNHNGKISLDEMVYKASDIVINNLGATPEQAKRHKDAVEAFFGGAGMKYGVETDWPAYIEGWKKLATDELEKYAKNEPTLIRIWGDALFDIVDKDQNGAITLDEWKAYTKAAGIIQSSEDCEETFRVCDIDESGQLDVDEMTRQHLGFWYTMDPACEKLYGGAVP
# Procedure: In a quartz cell with an optical path length of 10 mm, 1 ml of 50 mM Tris-HCl (pH 7.6) containing 1 mM EDTA and 100 μl (100 μg protein) of a solution of the regenerated semi-synthetic aequorin were charged and they were mixed. Subsequently, 100 μl of 50 mM Tris-HCl (pH 7.6) containing 0.1 ml of 10 mM calcium chloride solution was added to the mixture to trigger the luminescence reaction. The spectra were measured on a spectrofluorimeter (FP-6500, manufactured by JASCO Corporation) with the excitation source turned off. The measurement conditions used were as follows: band width, 20 nm; response, 0.5 second and scan speed, 2000 nm/min at 22 to 25° C.
# [2] = target: T2, Renilla luciferase (Renilla reniformis, UniProt P27652); assay: Substrate specificity, luminescence activity and emission spectra of Renilla luciferase; format: biochemical; details: for Maximum emission wavelength λmax (nm) / Luminescence activity Imax (%) / Luminescence capacity 10 secs. (%): Renilla luciferase; for Maximum emission wavelength λmax (nm): 22 to 25° C.; for Luminescence activity Imax (%) / Luminescence capacity 10 secs. (%): coelenterazine = 100.0; for Ability to act as substrate for Renilla luciferase: TABLE 4
# T2 construct: made in house
# T2 sequence (P27652 1-311): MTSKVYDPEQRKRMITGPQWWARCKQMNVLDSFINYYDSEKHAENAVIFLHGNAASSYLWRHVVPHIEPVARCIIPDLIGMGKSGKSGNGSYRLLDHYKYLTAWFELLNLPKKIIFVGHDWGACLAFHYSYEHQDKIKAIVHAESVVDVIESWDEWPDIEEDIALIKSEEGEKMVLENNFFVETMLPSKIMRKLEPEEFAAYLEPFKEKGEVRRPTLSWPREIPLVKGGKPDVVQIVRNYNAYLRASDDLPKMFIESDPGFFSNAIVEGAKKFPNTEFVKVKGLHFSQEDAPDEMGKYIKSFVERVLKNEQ
# Text: Res. Commun. (1997) 233: 349-353, which was provided for use.
# [3] = target: T3, 19 kDa protein of Oplophorus luciferase (Oplophorus gracilirostris, UniProt Q9GV45); assay: Substrate specificity, luminescence activity and emission spectra of the 19 kDa protein of Oplophorus luciferase; format: biochemical, Oplophorus gracilorostris; details: for Maximum emission wavelength λmax (nm) / Luminescence activity and/or capacity compared to known h-CTZ / Luminescence capacity 10 secs. (%) / Luminescence activity Imax (%): Oplophorus luciferase; for Maximum emission wavelength λmax (nm): 22 to 25° C.; for Luminescence activity and/or capacity compared to known h-CTZ / Quality as luminescence substrate for Oplophorus luciferase: TABLE 2; for Luminescence capacity 10 secs. (%): emission integrated for 10 seconds; for Luminescence capacity 10 secs. (%) / Luminescence activity Imax (%): coelenterazine = 100.0
# T3 construct: made in house
# T3 sequence (Q9GV45 28-196): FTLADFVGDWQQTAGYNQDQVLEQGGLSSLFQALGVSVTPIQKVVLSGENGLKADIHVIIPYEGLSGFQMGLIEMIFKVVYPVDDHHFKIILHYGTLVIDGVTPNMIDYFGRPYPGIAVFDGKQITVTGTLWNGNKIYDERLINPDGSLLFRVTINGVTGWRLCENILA
# [4] = target: T1, recombinant apoaequorin; assay: Calcium standard curve with semi-synthetic aequorins; format: biochemical; parameters: purchased Chisso Corporation; details: Imax versus 10^-3 M to 10^-8 M calcium
# Procedure: The dilution series was prepared by the serial process above to prepare standard calcium solution of 10^−3 M to 10^−8 M.
# The semi-synthetic aequorin obtained was concentrated using Amicon Ultra-4 (manufactured by Millipore, molecular weight cut off, 10.000).
# This semi-synthetic aequorin solution (2.5 mg/ml) was diluted with 20 mM Tris-HCl (pH 7.6) containing 0.1% BSA (manufactured by Sigma), 0.01 mM EDTA and 150 mM NaCl.
# The calcium standard solution prepared as described above was dispensed into a 96-well microplate (Nunc #236108) in 50 μl/well, and the semi-synthetic aequorin solution diluted was injected in […]. The luminescence intensity was measured for 60 seconds using a luminescence plate reader Centro LB960 (manufactured by Berthold) and expressed in terms of the maximum luminescence intensity (Imax). The luminescence intensity was measured for each semi-synthetic aequorin in the same fashion. Based on the maximum luminescence intensity (Imax) obtained, the calcium standard curve for each semi-synthetic aequorin was prepared.
# [5] = target: T1, recombinant apoaequorin; assay: Luminescence patterns and half decay time of semi-synthetic aequorins; format: biochemical; parameters: purchased Chisso Corporation; details: for Half decay time sec.: semi-synthetic aequorin, time to reach half of the maximum luminescence intensity
# Procedure: The dilution was dispensed into a 96-well microplate (Nunc #236108) in 5 μl/well. […] The luminescence patterns for 60 seconds were measured to determine the half decay time of luminescence (time period to reach the half of the maximum luminescence intensity).
# [6] = target: T1, recombinant apoaequorin; assay: Production of semi-synthetic aequorins and measurement of luminescence activity (Imax, luminescence capacity); details: for Ability to act as luminescence substrate for semi-synthetic aequorins (FIG. 1): regeneration 0.5 to 18 hours at 4° C.; for Luminescence activity Imax (%) / Luminescence capacity 60 sec (%): semi-synthetic aequorin, coelenterazine = 100.0; for Luminescence activity Imax (%): Ca2+-triggered, maximum intensity; for Luminescence capacity 60 sec (%): emission integrated for 60 seconds
# Procedure: In order to confirm the regeneration time and regeneration efficiency from apoaequorin to the semi-synthetic aequorin, the luminescence activity was assayed at the respective points of the regeneration process (at the respective points of 0.5, 1, 1.5, 2, 3 and 18 hours from the start of regeneration).
# Specifically, the luminescence activity described above was measured as follows. The luminescence reaction was started by adding 100 μl of 50 mM Tris-HCl (pH 7.6) containing 50 mM calcium chloride solution to 2 μl of a solution of the semi-synthetic aequorin at each regeneration process. The luminescence activity was measured for 10 seconds with a luminometer Luminescencer-PSN AB2200 (manufactured by Atto Co., Ltd.). The measured values were represented as the maximum intensity (Imax) of luminescence. The emission for 60 seconds was integrated, which was made a luminescence capacity.
# [7] = system: Gaussia luciferase; assay: Substrate specificity, luminescence activity and emission spectra of Gaussia luciferase; details: for Luminescence activity Imax (%) / Luminescence capacity 10 secs. (%): Gaussia luciferase, coelenterazine = 100.0
# Procedure: The luminescence activity was measured for 10 seconds using a luminometer Luminescencer-PSN AB2200 (manufactured by Atto Co., Ltd.). The luminescence activity was measured 3 times and expressed as the maximum intensity (Imax) of luminescence.
Compound,Emission spectra of semi-synthetic aequorins compared with known analogs (FIG. 3) [1],Maximum emission wavelength λmax (nm) [1] [nm],melting point,Maximum emission wavelength λmax (nm) [2] [nm],Luminescence activity Imax (%) [2] [%],Luminescence capacity 10 secs. (%) [2] [%],Maximum emission wavelength λmax (nm) [3] [nm],Luminescence activity and/or capacity compared to known h-CTZ [3],Luminescence capacity 10 secs. (%) [3] [%],Luminescence activity Imax (%) [3] [%],Quality as luminescence substrate for Oplophorus luciferase [3],Calcium standard curve with semi-synthetic aequorin (FIG. 4) [4],Half decay time sec. [5] [s],Ability to act as luminescence substrate for semi-synthetic aequorins (FIG. 1) [6],Luminescence activity Imax (%) [7] [%],Luminescence capacity 10 secs. (%) [7] [%],Luminescence activity Imax (%) [6] [%],Luminescence capacity 60 sec (%) [6] [%],also measured
"O=c1c(Cc2cccc(O)c2)nc2c(Cc3ccccc3)[nH]c(-c3ccc(O)cc3)cn1-2 [3iso-CTZ, 3-isocoelenterazine]",exhibit different emission spectra from those of known coelenterazine analogs,464.0,160 to 162 °C (dec.),472.0,25.7,27.5,458.0,high luminescence activity and/or luminescence capacity,71.8,78.2,relatively good luminescence substrates,calcium standard curves can be prepared,0.24,can be luminescence substrates for semi-synthetic aequorins,14.3,7.4,,,Ability to act as substrate for Renilla luciferase [2]: can be substrates for Renilla luciferase; Quality as luminescence substrate for Gaussia luciferase ([7]; TABLE 3): effective luminescence substrates
"Cc1cccc(Cc2nc3c(Cc4ccccc4)[nH]c(-c4ccc(O)cc4)cn-3c2=O)c1 [3me-CTZ, 3me-coelenterazine]",exhibit different emission spectra from those of known coelenterazine analogs,466.0,142 to 145 °C (dec.),471.5,12.7,13.1,455.5,high luminescence activity and/or luminescence capacity,122.8,80.0,relatively good luminescence substrates,calcium standard curves can be prepared,0.51,can be luminescence substrates for semi-synthetic aequorins,2.6,2.1,,,
"COc1cccc(Cc2nc3c(Cc4ccccc4)[nH]c(-c4ccc(O)cc4)cn-3c2=O)c1 [3meo-CTZ, 3meo-coelenterazine]",exhibit different emission spectra from those of known coelenterazine analogs,466.0,136 to 140 °C (dec.),473.5,26.0,31.6,455.5,high luminescence activity and/or luminescence capacity,204.7,189.1,relatively good luminescence substrates,calcium standard curves can be prepared,0.52,can be luminescence substrates for semi-synthetic aequorins,3.8,3.1,,,Ability to act as substrate for Renilla luciferase [2]: can be substrates for Renilla luciferase
"O=c1c(Cc2ccc(C(F)(F)F)cc2)nc2c(Cc3ccccc3)[nH]c(-c3ccc(O)cc3)cn1-2 [cf3-CTZ, cf3-coelenterazine]",exhibit different emission spectra from those of known coelenterazine analogs,473.5,157 to 161 °C (dec.),474.5,0.8,0.8,450.5,,68.2,49.5,relatively good luminescence substrates,calcium standard curves can be prepared,5.95,can be luminescence substrates for semi-synthetic aequorins,0.8,0.7,,,"Half decay time of luminescence compared with CTZ ([5]; semi-synthetic aequorin (FIG. 2, TABLE 1)): longer than CTZ"
"Oc1ccc(-c2cn3c(O)c(Cc4ccccc4)nc3c(Cc3ccccc3)n2)cc1 [h-CTZ, h-coelenterazine, reference compound]",,465.5,,472.5,78.6,90.3,456.5,,110.2,68.4,,,0.69,,5.8,7.2,87.9,70.1,
"coelenterazine [CTZ, reference compound]",,465.5,,472.5,100.0,100.0,457.0,,100.0,100.0,,,0.81,,100.0,100.0,100.0,100.0,
et-coelenterazine [et-CTZ],exhibit different emission spectra from those of known coelenterazine analogs,472.0,,471.0,0.5,0.3,454.0,,39.5,21.1,relatively good luminescence substrates,calcium standard curves can be prepared,1.21,can be luminescence substrates for semi-synthetic aequorins,0.9,1.1,27.3,44.1,
"i-coelenterazine [i-CTZ, reference compound]",,472.0,,473.0,0.2,0.3,450.0,,53.8,32.3,,,11.42,,0.9,1.3,5.0,65.3,
"n-coelenterazine [n-CTZ, reference compound]",,467.0,,,,,,,,,,,4.71,,,,3.6,24.0,
